# System: MV-4-11 cells
# Test: Gene expression microarray analysis (Affymetrix PrimeView) and GSEA
# Format: cell-based, human
# Set-up: RFU PODN (11730768_x_at) / Fold change /veh PODN (11730768_x_at) / RFU LINC00158 (11744669_a_at) / Fold change /veh LINC00158 (11744669_a_at) / RFU DUSP10 (11751237_a_at) / Fold change /veh DUSP10 (11751237_a_at) / RFU ID3 (11757404_x_at) / Fold change /veh ID3 (11757404_x_at) / RFU PLEKHG5 (11737974_s_at) / Fold change /veh PLEKHG5 (11737974_s_at) / RFU LRRC4B (11730491_at) / Fold change /veh LRRC4B (11730491_at) / RFU GIMAP4 (11747438_a_at) / Fold change /veh GIMAP4 (11747438_a_at) / RFU KRT8 (11758183_x_at) / Fold change /veh KRT8 (11758183_x_at) / RFU CNN1 (11734310_a_at) / Fold change /veh CNN1 (11734310_a_at) / RFU VPS37D (11726825_at) / Fold change /veh VPS37D (11726825_at) / RFU C10orf10 (11716522_x_at) / Fold change /veh C10orf10 (11716522_x_at) / RFU KIR2DL2 /// KIR2DL4 /// KIR2DL5A /// KIR2DL5B /// KIR2DS1 /// KIR2DS2 /// KIR2DS3 /// KIR2DS4 /// KIR3DL3 /// KIR3DL3 /// KIR3DS1 (11738374_at) / Fold change /veh KIR2DL2 /// KIR2DL4 /// KIR2DL5A /// KIR2DL5B /// KIR2DS1 /// KIR2DS2 /// KIR2DS3 /// KIR2DS4 /// KIR3DL3 /// KIR3DL3 /// KIR3DS1 (11738374_at) / RFU C1QL1 (11718748_at) / Fold change /veh C1QL1 (11718748_at) / RFU TMPRSS4 (11747572_a_at) / Fold change /veh TMPRSS4 (11747572_a_at) / RFU HAMP (11756126_x_at) / Fold change /veh HAMP (11756126_x_at) / RFU RNFT2 (11725882_a_at) / Fold change /veh RNFT2 (11725882_a_at) / RFU NR4A2 (11747474_a_at) / Fold change /veh NR4A2 (11747474_a_at) / RFU ABCC12 (11746883_a_at) / Fold change /veh ABCC12 (11746883_a_at) / RFU TMEM136 (11760407_x_at) / Fold change /veh TMEM136 (11760407_x_at) / RFU CLDN22 /// WWC2 (11732394_at) / Fold change /veh CLDN22 /// WWC2 (11732394_at) / RFU HLA-DPB1 (11760878_x_at) / Fold change /veh HLA-DPB1 (11760878_x_at) / RFU SPINT1 (11716480_a_at) / Fold change /veh SPINT1 (11716480_a_at) / RFU GAP43 (11754022_s_at) / Fold change /veh GAP43 (11754022_s_at) / RFU A4GNT (11735810_at) / Fold change /veh A4GNT (11735810_at) / RFU PRB3 (11715151_x_at) / Fold change /veh PRB3 (11715151_x_at) / RFU TUBB4B (11761932_at) / Fold change /veh TUBB4B (11761932_at) / RFU CAPN14 (11732068_a_at) / Fold change /veh CAPN14 (11732068_a_at) / RFU TMCC2 (11721928_a_at) / Fold change /veh TMCC2 (11721928_a_at) / RFU IRGQ (11745062_a_at) / Fold change /veh IRGQ (11745062_a_at) / RFU FAM174B (11720279_a_at) / Fold change /veh FAM174B (11720279_a_at) / RFU TMPRSS4 (11748680_a_at) / Fold change /veh TMPRSS4 (11748680_a_at) / RFU FAM212B (11763350_a_at) / Fold change /veh FAM212B (11763350_a_at) / RFU PLEKHG5 (11743358_a_at) / Fold change /veh PLEKHG5 (11743358_a_at) / RFU ZSCAN30 (11745921_a_at) / Fold change /veh ZSCAN30 (11745921_a_at) / RFU CMKLR1 (11741424_a_at) / Fold change /veh CMKLR1 (11741424_a_at) / RFU LOC101060620 /// MAPK8IP1 (11723275_at) / Fold change /veh LOC101060620 /// MAPK8IP1 (11723275_at) / RFU SPTSSB (11747773_x_at) / Fold change /veh SPTSSB (11747773_x_at) / RFU PRSS12 (11739890_at) / Fold change /veh PRSS12 (11739890_at) / RFU BIN1 (11741810_x_at) / Fold change /veh BIN1 (11741810_x_at) / RFU WNT11 (11732464_a_at) / Fold change /veh WNT11 (11732464_a_at) / RFU C10orf10 (11716521_a_at) / Fold change /veh C10orf10 (11716521_a_at) / RFU C5orf56 (11738089_at) / Fold change /veh C5orf56 (11738089_at) / RFU CYB561 (11721691_x_at) / Fold change /veh CYB561 (11721691_x_at) / RFU ANKRD19P (11752326_a_at) / Fold change /veh ANKRD19P (11752326_a_at) / RFU OR2T12 /// OR2T33 /// OR2T8 (11738714_s_at) / Fold change /veh OR2T12 /// OR2T33 /// OR2T8 (11738714_s_at) / RFU VCAN (11748164_a_at) / Fold change /veh VCAN (11748164_a_at) / RFU JSRP1 (11732532_at) / Fold change /veh JSRP1 (11732532_at) / RFU KRTAP10-11 (11738290_x_at) / Fold change /veh KRTAP10-11 (11738290_x_at) / RFU MYO3A (11730013_a_at) / Fold change /veh MYO3A (11730013_a_at) / RFU EBF3 (11725865_a_at) / Fold change /veh EBF3 (11725865_a_at) / RFU CAMK2N1 (11719241_x_at) / Fold change /veh CAMK2N1 (11719241_x_at) / RFU C5orf56 (11738088_a_at) / Fold change /veh C5orf56 (11738088_a_at) / RFU OLFML3 (11715873_a_at) / Fold change /veh OLFML3 (11715873_a_at) / RFU LOC100653217 /// NTM (11731650_a_at) / Fold change /veh LOC100653217 /// NTM (11731650_a_at) / RFU MAPK11 (11762145_a_at) / Fold change /veh MAPK11 (11762145_a_at) / RFU FIZ1 (11724087_x_at) / Fold change /veh FIZ1 (11724087_x_at) / RFU OASL (11726364_x_at) / Fold change /veh OASL (11726364_x_at) / RFU SOX15 (11748057_x_at) / Fold change /veh SOX15 (11748057_x_at) / RFU CD79A (11719716_a_at) / Fold change /veh CD79A (11719716_a_at) / RFU HIST1H1D (11736915_at) / Fold change /veh HIST1H1D (11736915_at) / RFU CASKIN2 (11723855_a_at) / Fold change /veh CASKIN2 (11723855_a_at) / RFU LOC730098 (11760151_x_at) / Fold change /veh LOC730098 (11760151_x_at) / RFU OR4N2 (11742367_at) / Fold change /veh OR4N2 (11742367_at) / RFU PRRT2 (11749266_a_at) / Fold change /veh PRRT2 (11749266_a_at) / RFU SNX32 (11753110_a_at) / Fold change /veh SNX32 (11753110_a_at) / RFU CDHR5 (11726645_a_at) / Fold change /veh CDHR5 (11726645_a_at) / RFU RCAN1 (11760418_a_at) / Fold change /veh RCAN1 (11760418_a_at) / RFU FAM167A (11723789_a_at) / Fold change /veh FAM167A (11723789_a_at) / RFU FAM26E (11764081_at) / Fold change /veh FAM26E (11764081_at) / RFU ISYNA1 (11749810_s_at) / Fold change /veh ISYNA1 (11749810_s_at) / RFU ACY1 (11761880_at) / Fold change /veh ACY1 (11761880_at) / RFU 11764098_at / Fold change /veh 11764098_at / RFU SAMD14 (11745864_x_at) / Fold change /veh SAMD14 (11745864_x_at) / RFU NPB (11741838_a_at) / Fold change /veh NPB (11741838_a_at) / RFU TMPRSS6 (11731388_a_at) / Fold change /veh TMPRSS6 (11731388_a_at) / RFU KRTAP10-2 (11738614_at) / Fold change /veh KRTAP10-2 (11738614_at) / RFU ARHGAP8 /// PRR5-ARHGAP8 (11727945_x_at) / Fold change /veh ARHGAP8 /// PRR5-ARHGAP8 (11727945_x_at) / RFU KRTAP5-7 /// NADSYN1 (11734609_at) / Fold change /veh KRTAP5-7 /// NADSYN1 (11734609_at) / RFU RASL12 (11751679_a_at) / Fold change /veh RASL12 (11751679_a_at) / RFU CDKN2B (11736163_a_at) / Fold change /veh CDKN2B (11736163_a_at) / RFU PRF1 (11729649_at) / Fold change /veh PRF1 (11729649_at) / RFU, ZNF638 /// ZNF638-IT1 / Fold change vs veh, ZNF638 /// ZNF638-IT1 / RFU, PANK3 / Fold change vs veh, PANK3 / RFU, SH3YL1 / Fold change vs veh, SH3YL1 / RFU, ZEB2 / Fold change vs veh, ZEB2 / RFU, NRIP1 / Fold change vs veh, NRIP1 / RFU, PTTG1IP / Fold change vs veh, PTTG1IP / RFU, CAPN2 / Fold change vs veh, CAPN2 / RFU, MED14 / Fold change vs veh, MED14 / RFU, SNORA58 / Fold change vs veh, SNORA58 / RFU, C1orf63 / Fold change vs veh, C1orf63 / RFU, LRRFIP1 / Fold change vs veh, LRRFIP1 / RFU, NDUFAF7 / Fold change vs veh, NDUFAF7 / RFU, SLC12A2 / Fold change vs veh, SLC12A2 / RFU, IBTK / Fold change vs veh, IBTK / RFU, ESF1 / Fold change vs veh, ESF1 / Fold change vs veh, TMEM50B / RFU, TAOK1 / Fold change vs veh, TAOK1 / RFU, ACBD3 / Fold change vs veh, ACBD3 / RFU, TMA16 / Fold change vs veh, TMA16 / RFU, RWDD3 / Fold change vs veh, RWDD3 / RFU, BCAT1 / Fold change vs veh, BCAT1 / RFU, EDEM3 / Fold change vs veh, EDEM3 / RFU, TMEM33 / Fold change vs veh, TMEM33 / RFU, WDR75 / Fold change vs veh, WDR75 / RFU, AHCTF1 / Fold change vs veh, AHCTF1 / RFU, TFRC / Fold change vs veh, TFRC / RFU, ZDHHC17 / Fold change vs veh, ZDHHC17 / RFU, NOM1 / Fold change vs veh, NOM1 / RFU, ARL8B / Fold change vs veh, ARL8B / RFU, ZBTB11 / Fold change vs veh, ZBTB11 / RFU, TAMM41 / Fold change vs veh, TAMM41 / RFU, KIAA1704 /// LOC100996395 / Fold change vs veh, KIAA1704 /// LOC100996395 / RFU, ING1 / Fold change vs veh, ING1 / RFU, TRMT61B / Fold change vs veh, TRMT61B / RFU, FUBP3 / Fold change vs veh, FUBP3 / RFU, TP53 / Fold change vs veh, TP53 / RFU, TNKS2 / Fold change vs veh, TNKS2 / RFU, ZFP14 / Fold change vs veh, ZFP14 / RFU, ACTR2 / Fold change vs veh, ACTR2 / RFU, PPP3R1 / Fold change vs veh, PPP3R1 / RFU, PIK3R1 / Fold change vs veh, PIK3R1 / RFU, HNRNPA1 / Fold change vs veh, HNRNPA1 / RFU, RNF170 / Fold change vs veh, RNF170 / RFU, ZNF28 / Fold change vs veh, ZNF28 / RFU, RNGTT / Fold change vs veh, RNGTT / RFU, OGT / Fold change vs veh, OGT / RFU, BRD1 / Fold change vs veh, BRD1 / RFU, MARS / Fold change vs veh, MARS / RFU, ZNF655 / Fold change vs veh, ZNF655 / RFU, FAHD1 / Fold change vs veh, FAHD1 / RFU, BDP1 / Fold change vs veh, BDP1 / RFU, LRRCC1 / Fold change vs veh, LRRCC1 / RFU, ARID1A / Fold change vs veh, ARID1A / RFU, ZNF146 / Fold change vs veh, ZNF146 / RFU, ZNF330 / Fold change vs veh, ZNF330 / RFU, GPN3 / Fold change vs veh, GPN3 / RFU, C9orf123 / Fold change vs veh, C9orf123 / RFU, N4BP2L2 / Fold change vs veh, N4BP2L2 / RFU, ARFIP1 / Fold change vs veh, ARFIP1 / RFU, FAM179B / Fold change vs veh, FAM179B / RFU, BCL10 / Fold change vs veh, BCL10 / RFU, UHRF1BP1L / Fold change vs veh, UHRF1BP1L / RFU, BET1 / Fold change vs veh, BET1 / RFU, CNOT2 / Fold change vs veh, CNOT2 / RFU, ZNF268 / Fold change vs veh, ZNF268 / Fold change vs veh, ZNF507 / RFU, DGCR2 / Fold change vs veh, DGCR2 / RFU, WDSUB1 / Fold change vs veh, WDSUB1 / Fold change vs veh, HSP90B1 /// MIR3652 / RFU, ADSS / Fold change vs veh, ADSS / RFU, GK / Fold change vs veh, GK / RFU, ZNF148 / Fold change vs veh, ZNF148 / RFU, TAF9 / Fold change vs veh, TAF9 / RFU, SLC1A5 / Fold change vs veh, SLC1A5 / RFU, SLMO2 / Fold change vs veh, SLMO2 / RFU, ABCC4 / Fold change vs veh, ABCC4 / RFU, LOC101060439 /// RAP1B / Fold change vs veh, LOC101060439 /// RAP1B / RFU, RFX7 / Fold change vs veh, RFX7 / RFU, GTPBP10 / Fold change vs veh, GTPBP10 / RFU, CNEP1R1 / Fold change vs veh, CNEP1R1 / RFU, BIVM-ERCC5 /// ERCC5 / Fold change vs veh, BIVM-ERCC5 /// ERCC5 / RFU, ILF3 / Fold change vs veh, ILF3 / RFU 11762660_at / Fold change /veh 11762660_at / RFU VCAN (11757783_s_at) / Fold change /veh VCAN (11757783_s_at) / RFU DDX43 (11728927_at) / Fold change /veh DDX43 (11728927_at) / RFU KRT8 (11758188_x_at) / Fold change /veh KRT8 (11758188_x_at) / RFU NKD1 (11759106_at) / Fold change /veh NKD1 (11759106_at) / RFU SRD5A1 (11742802_a_at) / Fold change /veh SRD5A1 (11742802_a_at) / RFU TPSAB1 /// TPSB2 (11721975_s_at) / Fold change /veh TPSAB1 /// TPSB2 (11721975_s_at) / RFU GSTM3 (11746129_a_at) / Fold change /veh GSTM3 (11746129_a_at) / RFU IL23R (11737362_x_at) / Fold change /veh IL23R (11737362_x_at) / RFU TMEM51 (11727254_a_at) / Fold change /veh TMEM51 (11727254_a_at) / RFU PIWIL2 (11732686_x_at) / Fold change /veh PIWIL2 (11732686_x_at) / RFU ORM1 (11744905_x_at) / Fold change /veh ORM1 (11744905_x_at) / RFU CCDC152 (11743942_at) / Fold change /veh CCDC152 (11743942_at) / RFU ECM1 (11717891_a_at) / Fold change /veh ECM1 (11717891_a_at) / RFU IL23R (11748794_a_at) / Fold change /veh IL23R (11748794_a_at) / RFU TNFAIP8L3 (11732012_x_at) / Fold change /veh TNFAIP8L3 (11732012_x_at) / RFU MBOAT4 (11741988_at) / Fold change /veh MBOAT4 (11741988_at) / RFU 11764193_at / Fold change /veh 11764193_at / RFU TMEM53 (11763286_at) / Fold change /veh TMEM53 (11763286_at) / RFU MAGEB2 (11727129_at) / Fold change /veh MAGEB2 (11727129_at) / RFU TMEM200A (11744735_a_at) / Fold change /veh TMEM200A (11744735_a_at) / RFU CCDC152 (11751479_a_at) / Fold change /veh CCDC152 (11751479_a_at) / RFU FAM211A (11726209_a_at) / Fold change /veh FAM211A (11726209_a_at) / RFU RGS16 (11746705_a_at) / Fold change /veh RGS16 (11746705_a_at) / RFU VCAN (11755009_s_at) / Fold change /veh VCAN (11755009_s_at) / RFU RHOB (11743442_s_at) / Fold change /veh RHOB (11743442_s_at) / RFU RGS16 (11720943_a_at) / Fold change /veh RGS16 (11720943_a_at) / RFU RGS16 (11720944_at) / Fold change /veh RGS16 (11720944_at) / RFU, VPS4B / Fold change vs veh, VPS4B / RFU, CREB1 / Fold change vs veh, CREB1 / RFU, DNAJC13 / Fold change vs veh, DNAJC13 / RFU, GNAQ / Fold change vs veh, GNAQ / RFU, CDK5R1 / Fold change vs veh, CDK5R1 / RFU, ZRANB3 / Fold change vs veh, ZRANB3 / RFU, CUL4A / Fold change vs veh, CUL4A / RFU, CCNY / Fold change vs veh, CCNY / RFU, UFL1 / Fold change vs veh, UFL1 / RFU, COG3 / Fold change vs veh, COG3 / RFU, DIAPH2 / Fold change vs veh, DIAPH2 / RFU, SKA2 / Fold change vs veh, SKA2 / RFU, AFF3 / Fold change vs veh, AFF3 / RFU, LMF1 / Fold change vs veh, LMF1 / RFU, IPO11 / Fold change vs veh, IPO11 / RFU, DFFB / Fold change vs veh, DFFB / RFU, FOXP1 / Fold change vs veh, FOXP1 / RFU, CARD8 / Fold change vs veh, CARD8 / RFU, STRN3 / Fold change vs veh, STRN3 / RFU, ADK / Fold change vs veh, ADK / RFU, RASSF2 / Fold change vs veh, RASSF2 / RFU, WIPF1 / Fold change vs veh, WIPF1 / RFU, LARP1B / Fold change vs veh, LARP1B / RFU, RASA1 / Fold change vs veh, RASA1 / RFU, RB1 / Fold change vs veh, RB1 / RFU, PPFIA1 / Fold change vs veh, PPFIA1 / RFU, MAT2A / Fold change vs veh, MAT2A / RFU, CCT5 / Fold change vs veh, CCT5 / RFU, WDR92 / Fold change vs veh, WDR92 / RFU, CUX1 / Fold change vs veh, CUX1 / RFU, TTC7A / Fold change vs veh, TTC7A / RFU, TMEM135 / Fold change vs veh, TMEM135 / RFU, DEPTOR / Fold change vs veh, DEPTOR / RFU, CPM / Fold change vs veh, CPM / RFU, DNAJB6 / Fold change vs veh, DNAJB6 / RFU, CACNA2D3 / Fold change vs veh, CACNA2D3 / RFU, DTX4 / Fold change vs veh, DTX4 / RFU, TFCP2 / Fold change vs veh, TFCP2 / RFU, GMCL1 /// GMCL1P1 / Fold change vs veh, GMCL1 /// GMCL1P1 / RFU, AEBP2 / Fold change vs veh, AEBP2 / RFU, SNHG1 /// SNORD22 /// SNORD25 /// SNORD26 /// SNORD27 /// SNORD28 /// SNORD29 /// SNORD31 / Fold change vs veh, SNHG1 /// SNORD22 /// SNORD25 /// SNORD26 /// SNORD27 /// SNORD28 /// SNORD29 /// SNORD31 / Fold change (Aza/veh), C12orf56 (ProbeSet 11735607_a_at) / Fold change (ACY-1035/veh), C12orf56 (ProbeSet 11735607_a_at) / Fold change (Aza/veh), FGFR1OP (ProbeSet 11751329_s_at) / Fold change (ACY-1035/veh), FGFR1OP (ProbeSet 11751329_s_at) / Fold change (Aza/veh), VPS36 (ProbeSet 11739960_a_at) / Fold change (ACY-1035/veh), VPS36 (ProbeSet 11739960_a_at) / RFU SYPL1 (11715823_x_at) / Fold change /veh SYPL1 (11715823_x_at) / RFU IGFBP7 (11715501_s_at) / Fold change /veh IGFBP7 (11715501_s_at) / RFU REEP3 (11722064_at) / Fold change /veh REEP3 (11722064_at) / RFU IGLL1 (11728026_x_at) / Fold change /veh IGLL1 (11728026_x_at): dose or concentration left out as unconfirmed
# Details: MV-4-11 cells, 48 hours
smiles,measurement,value
Nc1ncn([C@@H]2O[C@H](CO)[C@@H](O)[C@H]2O)c(=O)n1 [azacitidine],RFU KIR2DL2 /// KIR2DL4 /// KIR2DL5A /// KIR2DL5B /// KIR2DS1 /// KIR2DS2 /// KIR2DS3 /// KIR2DS4 /// KIR3DL3 /// KIR3DL3 /// KIR3DS1 (11738374_at),10.60 RFU
